Data: patent publication US9133116B2, “Bicyclic compounds” (PANACEA BIOTEC LTD., priority 2010, dated 2015)
Where two headings read alike, the source gives them in different places. Marks after values point to notes of the source that are not given here.

Key:
[1] = system: male SWISS albino mice; test: Forced Swim Test in mice; format: in vivo; settings: oral, 15 min before test, immobility in last 4 min of 6 min
Method: This test was conducted according to the method of Li, X., et al., Metabotropic Glutamate 5 Receptor Antagonism Is Associated with Antidepressant-Like Effects in Mice. J Pharmacol Exp Ther., 319(1):254-259 (2006), with slight modifications.
A test compound was suspended in 0.25% CMC, unless otherwise specified, and this solution was orally administered to male SWISS albino mice (7 to 9 week old). 15 min later, the mice were placed in a water tank having a water depth of 15 cm and a water temperature of 25±1° C. and immediately thereafter allowed to swim for 6 min. Then, a time during which the mouse was immobile (immobility time) was measured for the last 4 min.
Cleversys Software (Forced Swim Scan) was used for carrying out Forced Swim Test in mice.

[2] = target: T1, SERT (Homo sapiens, UniProt P31645); test: Serotonin Binding Assay ([3H]-Citalopram Binding Assay); settings: NE = Not Effective; for inhibition at 0.1 µM / inhibition at 1 µM: 1 h
T1 construct: purchased Perkin Elmer
Method: 2. Serotonin Binding Assay
The Membrane protein of 0.4 mL size vial, with protein concentration of 9.0 mg/ml was bought from Perkin Elmer, stored in −80° C. until required.
[^3H]-Citalopram Binding Assay:
(§1) Each well of 96 well microtitre plate was set up to contain the following:
The microtitre plates were incubated at 25° C. for 60 min; reaction was stopped by filtration in GF/B filter plate (presoaked in 0.5% Polyethylenimine) and then added 50 μL of microscint 40. Radioactivity was measured on Liquid Scintillation counter (Perkin Elmer).

[3] = target: T2, NET (Homo sapiens, UniProt P23975); test: Norepinephrine Binding Assay ([3H]-Nisoxetine Binding Assay); settings: NE = Not Effective; for inhibition at 0.1 µM / inhibition at 1 µM: 1 h
T2 construct: purchased Perkin Elmer
Method: 1. Norepinephrine Binding Assay
The Membrane protein of 0.4 mL size vial, with protein concentration of 3.0 mg/ml was bought from Perkin Elmer, stored in −80° C. until required.
[^3H]-Nisoxetine Binding Assay:
as §1
The microtitre plates were incubated at 4° C. for 60 mins; reaction was stopped by filtration in GF/B filter plate (presoaked in 0.5% Polyethylenimine) and then added 50 μl of microscint 40. Radioactivity was measured on Liquid Scintillation counter (Perkin Elmer).

[4] = target: T3, DAT (Homo sapiens, UniProt Q01959); test: Dopamine Binding Assay ([3H]-WIN35,428 Binding Assay); settings: NE = Not Effective; for inhibition at 1 µM / inhibition at 0.1 µM: 2 h; for inhibition at 0.1 µM: read-out: DAT % WIN 35428 displacement 100 nM, 100 nM test compound
T3 construct: purchased Perkin Elmer
Method: 3. Dopamine Binding Assay
The Membrane protein of 0.4 mL size vial, with protein concentration of 12 mg/mL was bought from Perkin Elmer, stored in −80° C. until required.
[^3H]-WIN35,428 Binding Assay:
as §1
The microtitre plates were incubated at 4° C. for 120 min; reaction was stopped by filtration in GF/B filter plate (presoaked in 0.5% Polyethylenimine) and then added 50 μL of microscint 40. Radioactivity was measured on Liquid Scintillation counter (Perkin Elmer).

[5] = read-out: SERT % Citalopram displacement 100 nM, 100 nM test compound
[6] = read-out: SERT % Citalopram displacement 1 μM, 1 μM test compound
[7] = read-out: NET % Nisoxetine displacement 100 nM, 100 nM test compound
[8] = read-out: NET % Nisoxetine displacement 1 μM, 1 μM test compound
[9] = read-out: DAT % WIN 35428 displacement 1 μM, 1 μM test compound
[10] = 1 μM test compound, read-out: NET % Nisoxetine displacement 1 μM
[11] = 100 nM test compound, read-out: SERT % Citalopram displacement 100 nM
[12] = 1 μM test compound, read-out: SERT % Citalopram displacement 1 μM
[13] = 1 μM test compound, read-out: DAT % WIN 35428 displacement 1 μM

T2 sequence (P23975 whole entry): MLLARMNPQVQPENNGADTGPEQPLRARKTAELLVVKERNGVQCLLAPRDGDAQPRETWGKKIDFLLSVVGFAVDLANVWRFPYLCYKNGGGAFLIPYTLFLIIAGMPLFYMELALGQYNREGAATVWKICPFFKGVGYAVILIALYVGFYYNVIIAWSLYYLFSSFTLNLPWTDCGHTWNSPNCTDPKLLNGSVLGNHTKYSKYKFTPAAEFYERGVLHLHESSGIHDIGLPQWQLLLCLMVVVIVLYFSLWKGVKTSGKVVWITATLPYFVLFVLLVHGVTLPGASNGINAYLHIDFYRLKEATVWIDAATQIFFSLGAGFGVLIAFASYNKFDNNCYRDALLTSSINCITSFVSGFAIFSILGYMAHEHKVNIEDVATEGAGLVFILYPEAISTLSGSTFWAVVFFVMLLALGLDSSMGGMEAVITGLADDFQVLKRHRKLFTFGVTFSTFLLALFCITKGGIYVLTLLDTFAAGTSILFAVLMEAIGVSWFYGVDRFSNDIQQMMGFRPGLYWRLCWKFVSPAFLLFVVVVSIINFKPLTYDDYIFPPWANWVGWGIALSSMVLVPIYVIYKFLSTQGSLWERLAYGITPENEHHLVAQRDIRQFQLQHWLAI
T1 sequence (P31645 whole entry): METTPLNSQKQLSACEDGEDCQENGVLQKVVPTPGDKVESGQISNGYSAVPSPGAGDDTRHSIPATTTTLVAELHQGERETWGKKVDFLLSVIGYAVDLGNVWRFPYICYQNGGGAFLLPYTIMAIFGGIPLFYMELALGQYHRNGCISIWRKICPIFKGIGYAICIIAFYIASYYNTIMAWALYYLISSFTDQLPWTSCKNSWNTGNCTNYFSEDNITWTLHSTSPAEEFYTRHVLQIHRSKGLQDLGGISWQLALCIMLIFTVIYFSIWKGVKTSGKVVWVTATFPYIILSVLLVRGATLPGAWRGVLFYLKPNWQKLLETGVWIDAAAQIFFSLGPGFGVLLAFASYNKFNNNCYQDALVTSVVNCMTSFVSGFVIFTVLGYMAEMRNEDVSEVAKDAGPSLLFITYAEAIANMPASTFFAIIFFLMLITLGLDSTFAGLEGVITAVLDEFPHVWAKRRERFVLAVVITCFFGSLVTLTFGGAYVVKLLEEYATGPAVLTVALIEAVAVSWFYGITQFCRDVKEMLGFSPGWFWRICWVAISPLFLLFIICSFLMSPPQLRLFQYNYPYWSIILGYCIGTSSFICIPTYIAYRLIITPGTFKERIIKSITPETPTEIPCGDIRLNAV
T3 sequence (Q01959 whole entry): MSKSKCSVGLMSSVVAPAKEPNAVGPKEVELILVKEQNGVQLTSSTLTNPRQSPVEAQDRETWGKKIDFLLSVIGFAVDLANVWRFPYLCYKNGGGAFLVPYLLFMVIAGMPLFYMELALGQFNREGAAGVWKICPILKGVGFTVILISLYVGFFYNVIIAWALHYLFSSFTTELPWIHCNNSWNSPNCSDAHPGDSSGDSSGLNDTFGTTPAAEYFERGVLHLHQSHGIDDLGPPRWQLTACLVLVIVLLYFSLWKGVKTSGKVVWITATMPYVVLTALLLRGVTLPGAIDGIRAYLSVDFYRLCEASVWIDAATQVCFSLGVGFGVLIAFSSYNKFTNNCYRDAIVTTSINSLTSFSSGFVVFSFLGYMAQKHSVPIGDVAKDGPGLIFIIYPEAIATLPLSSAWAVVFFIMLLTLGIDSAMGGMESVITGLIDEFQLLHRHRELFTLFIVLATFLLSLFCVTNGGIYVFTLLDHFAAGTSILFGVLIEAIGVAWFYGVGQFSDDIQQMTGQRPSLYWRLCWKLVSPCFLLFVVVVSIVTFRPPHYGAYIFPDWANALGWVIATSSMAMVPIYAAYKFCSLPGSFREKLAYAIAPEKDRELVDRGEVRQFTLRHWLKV

CON=C(c1ccc(Cl)c(Cl)c1)C1C2CNCC21.Cl (stereo not drawn)
% decrease in immobility time (dose 32 mg/kg) ([1]; vehicle de-ionized water): 80.0 ± 3.8^z %

CON=CC1C2CNCC12c1ccc(Cl)c(Cl)c1.Cl (stereo not drawn)
% decrease in immobility time (dose 32 mg/kg) ([1]; vehicle de-ionized water): 87.5 ± 4.1^z %

CCON=CC1C2CNCC12c1ccc(Cl)c(Cl)c1.Cl (stereo not drawn)
% decrease in immobility time (dose 32 mg/kg) ([1]; suspended in 0.25% CMC): 83.1 ± 9.6%

CON=CC1C2CNCC12c1ccc(Cl)cc1.Cl (stereo not drawn)
% decrease in immobility time (dose 32 mg/kg) ([1]; vehicle de-ionized water): 50.2 ± 14.7^z %

CON=CC1C2CNCC12c1ccc(F)cc1.Cl (stereo not drawn)
% decrease in immobility time (dose 32 mg/kg) ([1]; vehicle de-ionized water): 55.1 ± 13.0^z %

CON=CC1C2CNCC12c1ccccc1.Cl (stereo not drawn)
% decrease in immobility time (dose 32 mg/kg) ([1]; suspended in 0.25% CMC): 60.4 ± 12.6%

CON=C(c1ccccc1)C1C2CNCC21 (stereo not drawn)
inhibition at 0.1 µM [2, 5]: 18.4%
inhibition at 1 µM [2, 6]: 27.5%

CON=C(c1ccc2ccccc2c1)C1C2CNCC21 (stereo not drawn)
inhibition at 0.1 µM [3, 7]: 21.8%
inhibition at 1 µM [3, 8]: 60.5%
inhibition at 0.1 µM [2, 5]: 77.2%
inhibition at 1 µM [2, 6]: 93.4%

ON=C(c1ccc(Cl)c(Cl)c1)C1C2CNCC21 (stereo not drawn)
inhibition at 1 µM [3, 8]: 25.1%
inhibition at 0.1 µM [2, 5]: 29.8%
inhibition at 1 µM [2, 6]: 74.8%
inhibition at 1 µM [4, 9]: 49.6%

CCON=C(c1ccc(Cl)c(Cl)c1)C1C2CNCC21 (stereo not drawn)
inhibition at 0.1 µM [3, 7]: 18.2%
inhibition at 1 µM [3, 8]: 61.5%
inhibition at 0.1 µM [2, 5]: 49.8%
inhibition at 1 µM [2, 6]: 87.5%
inhibition at 1 µM [4, 9]: 71%

C=CCON=C(c1ccc(Cl)c(Cl)c1)C1C2CNCC21 (stereo not drawn)
inhibition at 0.1 µM ([3]; 100 nM test compound, read-out: NET % Nisoxetine displacement 100 nM): 14.3%
inhibition at 1 µM [3, 10]: 71.3%
inhibition at 0.1 µM [2, 11]: 72.6%
inhibition at 1 µM [2, 12]: 94.4%
inhibition at 1 µM [4, 13]: 78%

Clc1ccc(C(=NOCC2CC2)C2C3CNCC32)cc1Cl (stereo not drawn)
inhibition at 1 µM [3, 10]: 33.9%
inhibition at 0.1 µM [2, 11]: 69.8%
inhibition at 1 µM [2, 12]: 95.5%
inhibition at 1 µM [4, 13]: 68.7%

Clc1ccc(C(=NOc2ccccc2)C2C3CNCC32)cc1Cl (stereo not drawn)
inhibition at 1 µM [3, 10]: 19.1%
inhibition at 1 µM [2, 12]: 61.4%

Clc1ccc(C(=NOCc2ccccc2)C2C3CNCC32)cc1Cl (stereo not drawn)
inhibition at 1 µM [3, 10]: 27.2%
inhibition at 0.1 µM [2, 11]: 30.4%
inhibition at 1 µM [2, 12]: 85.8%
inhibition at 1 µM [4, 13]: 36%

CON=CC1C2CNCC12c1ccc(Cl)c(Cl)c1 (stereo not drawn)
inhibition at 0.1 µM [3, 7]: 37.4%
inhibition at 1 µM [3, 8]: 82.3%
inhibition at 0.1 µM [2, 5]: 65%
inhibition at 1 µM [2, 6]: 91.8%
inhibition at 0.1 µM [4]: 30.6%
inhibition at 1 µM [4, 9]: 66.3%

CCON=CC1C2CNCC12c1ccc(Cl)c(Cl)c1 (stereo not drawn)
inhibition at 0.1 µM [2, 5]: 83.7%
inhibition at 1 µM [2, 6]: 94.4%
inhibition at 0.1 µM [4]: 16.7%
inhibition at 1 µM [4, 9]: 71.8%

Clc1ccc(C23CNCC2C3C=NOCc2ccccc2)cc1Cl (stereo not drawn)
inhibition at 0.1 µM [3, 7]: 34.6%
inhibition at 1 µM [3, 8]: 73.6%
inhibition at 0.1 µM [2, 5]: 23.3%
inhibition at 1 µM [2, 6]: 89%
inhibition at 0.1 µM [4]: 27%
inhibition at 1 µM [4, 9]: 39%

Fc1ccc(CON=CC2C3CNCC23c2ccc(Cl)c(Cl)c2)cc1 (stereo not drawn)
inhibition at 1 µM [3, 10]: 74.2%
inhibition at 0.1 µM [2, 11]: 12.5%
inhibition at 1 µM [2, 12]: 88.8%
inhibition at 1 µM [4, 13]: 40.9%

CON=CC1C2CNCC12c1ccc(Cl)cc1 (stereo not drawn)
inhibition at 1 µM [3, 8]: 54.5%
inhibition at 0.1 µM [2, 5]: 37.8%
inhibition at 1 µM [2, 6]: 85.6%
inhibition at 1 µM [4, 9]: 29.9%

CON=CC1C2CNCC12c1ccc(F)cc1 (stereo not drawn)
inhibition at 0.1 µM [2, 5]: 43.5%
inhibition at 1 µM [2, 6]: 85.1%

CON=CC1C2CNCC12c1ccccc1 (stereo not drawn)
inhibition at 0.1 µM [2, 5]: 39.2%
inhibition at 1 µM [2, 6]: 79.9%

CON=C(c1ccc(Cl)c(Cl)c1)C1C2CNCC21.Cl (stereo not drawn) [drawing 66]
inhibition at 0.1 µM [3, 7]: 15.6%
inhibition at 1 µM [3, 8]: 75.6%
inhibition at 0.1 µM [2, 5]: 43.1%
inhibition at 1 µM [2, 6]: 84.8%
DAT % WIN 35428 displacement 1 μM ([4]; 1 μM test compound): 32.76%

CON=C(c1ccc(Cl)c(Cl)c1)C1C2CNCC21 (stereo not drawn) [drawing 72]
NET % Nisoxetine displacement 100 nM ([3]; 100 nM test compound): 24.48%
NET % Nisoxetine displacement 1 μM ([3]; 1 μM test compound): 75.97%
SERT % Citalopram displacement 100 nM ([2]; 100 nM test compound): 50.25%
SERT % Citalopram displacement 1 μM ([2]; 1 μM test compound): 90.07%
DAT % WIN 35428 displacement 1 μM ([4]; 1 μM test compound): 64.58%
inhibition at 0.1 µM [4]: 28.1%
